US5503776A, “N-acylcarnosines and their use as antioxidants” (National Food Research Institute Ministry of Agriculture, …, priority 1991, dated 1996)
Peptide text beside a SMILES is read from it. * marks the point of attachment. Oleoyl = CCCCCCCC/C=C\CCCCCCCC(=O)*

How the values were obtained:
[1] = Repression of the radical chain autoxidation reaction of methyl linoleate (HPLC of methyl linoleate hydroperoxide); conditions: hexane/isopropyl alcohol (1:1 v/v), 100 mM methyl linoleate, 10 mM 2,2'-azo-bis(2,4-dimethyl valeronitrile), 37° C.; FIG. 8-10
Experimental: The N-oleoyl-carnosine, N-caprinoyl-carnosine and N-oleoyl-carnosine methyl ester obtained respectively in Examples 1, 3 and 4 were tested for antioxidizing power in terms of repression of the radical chain autoxidation reaction of methyl linoleate. Hexane/isopropyl alcohol (1:1 v/v) containing 100 mM of methyl linoleate, 10 mM of an oil-soluble generating agent (2,2'-azo-bis(2,4-dimethyl valeronitrile)), and various concentration of N-oleoyl-carnosine, N-caprinoyl-carnosine or N-oleoyl-carnosine methyl ester was kept incubated at 37° C., sampled at intervals along the course of time, and analyzed by high-performance liquid chromatography to follow changes in the amount of methyl linoleate hydroperoxide to be formed.

[2] = Emulsifying power in soybean oil/phosphate buffer, turbidity of lower layer O.D. (500 nm); assay type: physicochemical; conditions: 0.2% in 50 mM phosphate buffer (pH 7), 30° C.; for Relative emulsifying activity (%): one half volume soybean oil, ultrasonic wave, relative to N-oleoyl-carnosine taken as 100; for emulsifying power (in words): oil-water system, soybean oil
Experimental: The N-oleoyl-carnosine and the N-oleoyl-histidine obtained respectively in Example 1 and Example 2 were tested for emulsifying power. The emulsifying power was determined by dissolving each N-acyl compound in a concentration of 0.2% in 50 mM of phosphate buffer solution (pH 7), combining the resultant solution with one half in volume of soybean oil, subjecting the resultant mixture to a treatment with ultrasonic wave at 30° C., allowing the treated mixture to stand at rest at 30° C. for a prescribed time, and measuring the turbidity of the lower layer consequently separated in the mixture in terms of O.D. (500 nm). […] The magnitudes of emulsifying power given in Table 1 represent relative numerical values of emulsifying power based on the emulsifying power of N-oleoyl-carnosine taken as 100.

[3] = Repression of the radical chain autoxidizing reaction of a multilayer liposome (ferrous sulfate/ascorbic acid, TBA reaction); conditions: 10 μM compound in liposome, 0.1 mM ferrous sulfate, 1 mM ascorbic acid, pH 7.4, 37° C.; FIG. 11
Experimental: The N-oleoyl-carnosine and the N-oleoyl-histidine obtained respectively in Example 1 and Example 2 were tested for antioxidizing power in terms of the repression of the radical chain autoxidizing reaction of a multilayer liposome. A multilayer liposome was formed of 4 mM of egg yolk phosphatidylcholine, 0.4 mM of egg yolk phosphatidylcholine hydroperoxide,and 10 μM of N-oleoylcarnosine or N-oleoyl-histidine by the use of 10 mM trishydrochloric acid buffer solution (pH 7.4). The multilayer liposome and 0.1 mM of ferrous sulfate and 1 mM of ascorbic acid added thereto were incubated at 37° C., sampled at intervals along the course of time, subjected to the TBA reaction to induce coloration of malondialdehyde resulting from the hydrolysis of lipid peroxide, and analyzed by high-performance liquid chromatography to follow changes in the amount of the hydrolyzate.

Row | Relative emulsifying activity (%) [2] | Compound | antioxidizing power (formation of methyl linoleate hydroperoxide) [1] | antioxidizing power (malondialdehyde from lipid peroxide) [3] | emulsifying power (in words) [2]
1 |  | CCCCCCCC/C=C\CCCCCCCC(=O)N[C@@H](Cc1c[nH]cn1)C(=O)N[C@@H](CC(C)C)C(=O)O [N-oleoyl histidylleucine] (Oleoyl-His-Leu-OH) | have antioxidizing powers |  | 
2 |  | CCCCCCCCCC(=O)N[C@@H](Cc1c[nH]cn1)C(=O)O [N-caprinoyl histidine] | have antioxidizing powers |  | 
3 |  | CCCCCCCC/C=C\CCCCCCCC(=O)NCCC(=O)N[C@@H](Cc1cnc[nH]1)C(=O)OC [N-oleoyl-carnosine methyl ester, N-Oleoyl carnosine methyl ester] | possessed of antioxidizing power |  | 
4 | 82.1% | CCCCCCCC/C=C\CCCCCCCC(=O)N[C@@H](Cc1cnc[nH]1)C(=O)O [N-oleoyl-His] | have antioxidizing powers | possessed of antioxidizing power | possessed of outstanding emulsifying power
5 |  | CCCCCCCCCC(=O)NCCC(=O)NC(Cc1cnc[nH]1)C(=O)O (centres unmarked) [N-caprinoyl-carnosine, N-Caprinoyl carnosine] | possessed of antioxidizing power |  | 
6 | 100% | CCCCCCCC/C=C\CCCCCCCC(=O)NCCC(=O)N[C@@H](Cc1cnc[nH]1)C(=O)O [N-oleoyl-carnosine] | possessed of antioxidizing power | possessed of antioxidizing power | possessed of outstanding emulsifying power
7 |  | CCCCCCCC/C=C\CCCCCCCC(=O)NCC(=O)NCC(=O)N[C@@H](Cc1c[nH]cn1)C(=O)O [N-oleoyl glycylglycylhistidine] (Oleoyl-Gly-Gly-His-OH) | have antioxidizing powers |  | 

Row | Compound | Relative emulsifying activity (%) [2] | antioxidizing power (formation of methyl linoleate hydroperoxide) [1] | antioxidizing power (malondialdehyde from lipid peroxide) [3] | emulsifying power (in words) [2]
8 | Casein | 24.3% |  |  | 
